One assay addresses T1, recombinant human XT-I (Homo sapiens, UniProt Q86Y38).
T1 sequence (Q86Y38 252-959 limits assumed): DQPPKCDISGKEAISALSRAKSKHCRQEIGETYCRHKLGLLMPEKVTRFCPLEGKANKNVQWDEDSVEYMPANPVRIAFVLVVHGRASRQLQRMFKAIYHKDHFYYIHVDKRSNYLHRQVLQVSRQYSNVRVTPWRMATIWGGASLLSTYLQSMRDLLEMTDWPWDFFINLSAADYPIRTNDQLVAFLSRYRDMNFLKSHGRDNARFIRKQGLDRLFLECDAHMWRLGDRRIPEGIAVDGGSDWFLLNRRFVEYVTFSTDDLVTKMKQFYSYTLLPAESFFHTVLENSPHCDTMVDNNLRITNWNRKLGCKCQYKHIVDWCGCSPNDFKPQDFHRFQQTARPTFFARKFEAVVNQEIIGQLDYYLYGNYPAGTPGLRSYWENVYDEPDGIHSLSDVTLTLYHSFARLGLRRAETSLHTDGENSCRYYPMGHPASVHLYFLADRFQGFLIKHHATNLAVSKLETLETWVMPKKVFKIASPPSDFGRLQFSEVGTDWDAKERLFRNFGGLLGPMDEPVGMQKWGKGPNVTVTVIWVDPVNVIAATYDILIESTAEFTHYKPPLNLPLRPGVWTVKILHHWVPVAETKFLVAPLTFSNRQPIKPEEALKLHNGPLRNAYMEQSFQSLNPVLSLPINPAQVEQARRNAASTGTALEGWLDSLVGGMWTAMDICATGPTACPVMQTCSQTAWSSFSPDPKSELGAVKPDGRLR
As to the kind of experiment: NP library inhibitor screening, UPLC/ESI-MS/MS XT-I assay. Format: biochemical. Conditions: 50 μM inhibitor, technical duplicates; for XT-I Activity [%]: Table 2, relative to control (DMSO = 100%); for remaining activity at 50 µM: Table S1, relative to negative control containing DMSO.

The target in another assay is T2, XT-I (Homo sapiens, UniProt Q86Y38).
T2 sequence (Q86Y38 260-959 limits assumed): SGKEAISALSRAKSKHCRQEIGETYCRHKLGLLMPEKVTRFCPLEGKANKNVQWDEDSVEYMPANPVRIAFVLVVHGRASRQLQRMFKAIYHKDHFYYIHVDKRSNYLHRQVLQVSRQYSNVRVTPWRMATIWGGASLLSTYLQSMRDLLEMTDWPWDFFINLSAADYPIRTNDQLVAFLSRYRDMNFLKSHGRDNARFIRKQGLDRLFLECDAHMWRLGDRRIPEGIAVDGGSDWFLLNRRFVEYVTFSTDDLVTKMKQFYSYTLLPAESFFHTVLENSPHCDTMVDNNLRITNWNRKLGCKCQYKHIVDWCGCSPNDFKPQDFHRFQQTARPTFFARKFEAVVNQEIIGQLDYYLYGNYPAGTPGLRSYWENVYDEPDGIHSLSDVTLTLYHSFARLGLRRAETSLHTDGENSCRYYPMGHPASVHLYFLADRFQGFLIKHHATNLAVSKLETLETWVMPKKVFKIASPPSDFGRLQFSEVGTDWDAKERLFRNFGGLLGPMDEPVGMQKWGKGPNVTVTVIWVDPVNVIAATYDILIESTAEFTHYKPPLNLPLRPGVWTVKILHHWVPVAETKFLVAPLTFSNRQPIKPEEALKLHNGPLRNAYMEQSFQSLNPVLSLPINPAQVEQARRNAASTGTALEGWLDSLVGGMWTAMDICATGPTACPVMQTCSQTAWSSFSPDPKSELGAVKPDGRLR
Description: IC50 determination, UPLC/ESI-MS/MS XT-I assay. Format: biochemical. From the text:
The measurement of relative XT-I activity among different samples is based on the XT-catalyzed incorporation of xylose from UDP-D-xylose on a modified bikunin-derived peptide after a fixed reaction time. The assay was originally developed for the determination of XT activity in human- or cell-culture-derived samples [13] by ultra-performance liquid chromatography/electrospray ionization tandem mass spectrometry (UPLC/ESI-MS/MS). The UPLC/ESI-MS/MS XT assay was recently modified toward a XT-I selective activity determination in human serum and cell culture samples (unpublished data). The relative intensities of the xylosylated peptide species abundance obtained with the respective m/z ratio were directly proportional to the relative XT-I activity of the sample. The XT-I activity determined is expressed in arbitrary units and normalized to the total protein content per 1 mL sample volume in cell culture approaches. A calibrator probe with a fixed amount of recombinant XT-I enzyme was included in every UPLC-MS/MS XT-I assay for assay comparability across multiple runs. […]
Inhibitor candidates from the NP compound library were screened using the UPLC/ESI-MS/MS XT-I assay with recombinant XT-I protein solution from pgsA-6HisXT1-K4 cells. […] The XT-I activity of the protein-inhibitor mixtures were determined by UPLC/ESI-MS/MS as described above. […]

Where two headings read alike, the source gives them in different places.

Take `C[C@@H]1[C@H](O)[C@@H](C)/C=C/C=C/C=C/C=C/C=C/C=C/C=C/[C@H](O[C@@H]2O[C@H](C)[C@@H](O)[C@H](N)[C@@H]2O)C[C@@H]2O[C@](O)(C[C@@H](O)C[C@@H](O)[C@H](O)CC[C@@H](O)C[C@@H](O)CC(=O)O[C@H]1C)C[C@H](O)[C@H]2C(=O)O` [Compound 17, Amphotericin B]: at recombinant human XT-I, the “XT-I Activity [%]” value was determined as 25% and the remaining activity at 50 µM was found to be 25%. Besides, the half-maximal inhibitory concentration (IC50) on XT-I (15 μM UDP-D-xylose, 10.5 μM acceptor peptide, 1 h preincubation at RT, read-out: IC50) came to 12.2 ± 1 µM.
As for `CC1=C(O)C(=O)C=C2C1=CC=C1[C@@]2(C)CC[C@@]2(C)[C@@H]3C[C@](C)(C(=O)O)CC[C@]3(C)CC[C@]12C` [Compound 68, Celastrol], on recombinant human XT-I, the “XT-I Activity [%]” value came out at 38% and the remaining activity at 50 µM was 38%. At XT-I, this compound displayed an IC50 of 11 ± 1 µM.
